Series [1] is described as follows: Solubility in buffers at pH 1.0, 1.2, 4.5, 6.8 and 7.5. The series is classed as physicochemical. Conditions: for Solubility pH = 1.0 (class) / Solubility pH = 1.0 (volume of solvent required for dissolution per gram of solute): buffer pH 1.0, KCl 0.2 M / HCl 0.2 M; for Solubility pH = 1.2 (class) / Solubility pH = 1.2 (volume of solvent required for dissolution per gram of solute): buffer pH 1.2, KCl 0.2 M / HCl 0.2 M; for Solubility pH = 4.5 (class) / Solubility pH = 4.5 (volume of solvent required for dissolution per gram of solute): buffer pH 4.5, potassium biphthalate 0.2 M / HCl 0.2 M; for Solubility pH = 6.8 (class) / Solubility pH = 6.8 (volume of solvent required for dissolution per gram of solute): buffer pH 6.8, monobasic potassium phosphate 0.2 M / NaOH 0.2 M; for Solubility pH = 7.5 (class) / Solubility pH = 7.5 (volume of solvent required for dissolution per gram of solute): buffer pH 7.5, monobasic potassium phosphate 0.2 M / NaOH 0.2 M. As to the method:
The buffers at pH 1.0 and 1.2 were prepared with aqueous solutions of potassium chloride 0.2M and hydrochloric acid 0.2 M, the buffers at pH 6.8 and 7.5 were prepared with aqueous solutions of monobasic potassium phosphate 0.2 M and sodium hydroxide 0.2 M and the buffer at pH 4.5 with aqueous solutions of potassium biphthalate 0.2 M and hydrochloric acid 0.2 M, according to pharmacopoeia USP31.
The statement freely soluble means that the volume of solvent (required for dissolution) in ml per gram of solute is of from 1 to 10. The statement soluble means that the volume of solvent (required for dissolution) in ml per gram of solute is of from […]. The statement sparingly soluble means that the volume of solvent (required for dissolution) in ml per gram of solute is of from 30 to 100. The statement slightly soluble means that the volume of solvent (required for dissolution) in ml per gram of solute is of from 100 to 1000. The statement very slightly soluble means that the volume of solvent (required for dissolution) in ml per gram of solute is from 1000 to 10 000.

Series [2] in a line: Color classification according to the Munsell color system. The series is classed as physicochemical. To be noted: for Munsell Classification: Munsell color system. From the text:
The table below presents the color classification of the doxycycline salts according to the Munsell color system.

Series [3] is described as follows: pH of aqueous solutions of the salts. Conditions: for pH: aqueous solution, concentration approximately 10^-3 M.

Take `C[C@H]1c2cccc(O)c2C(=O)C2=C(O)[C@]3(O)C(=O)C(C(N)=O)=C(O)[C@@H](N(C)C)[C@@H]3[C@@H](O)[C@@H]21` [Doxycycline Monohydrate, reference compound]: in series [1], the “Solubility pH = 1.0 (class)” value is “Soluble (The statement soluble means that the volume of solvent (required for dissolution) in ml per gram of solute is of from 1 to 30)”, the “Solubility pH = 1.0 (volume of solvent required for dissolution per gram of solute)” value worked out at 19 ml/g, the “Solubility pH = 1.2 (class)” value is “Soluble (The statement soluble means that the volume of solvent (required for dissolution) in ml per gram of solute is of from 1 to 30)” and the “Solubility pH = 1.2 (volume of solvent required for dissolution per gram of solute)” value stood at 25 ml/g. In addition, in series [1], the “Solubility pH = 4.5 (class)” value is reported as “Slightly (The statement slightly soluble means that the volume of solvent (required for dissolution) in ml per gram of solute is of from 100 to 1000)”, the “Solubility pH = 4.5 (volume of solvent required for dissolution per gram of solute)” value is listed as 1000 ml/g, the “Solubility pH = 6.8 (class)” value is listed as “Slightly (The statement slightly soluble means that the volume of solvent (required for dissolution) in ml per gram of solute is of from 100 to 1000)” and the “Solubility pH = 6.8 (volume of solvent required for dissolution per gram of solute)” value stood at 333 ml/g. In series [1], the “Solubility pH = 7.5 (class)” value is given as “Slightly (The statement slightly soluble means that the volume of solvent (required for dissolution) in ml per gram of solute is of from 100 to 1000)” and the “Solubility pH = 7.5 (volume of solvent required for dissolution per gram of solute)” value stood at 1000 ml/g. In series [2], the “Color Description” value is “Yellowish” and the “Munsell Classification” value came to 10Y/9/3.5 NN.
On to Demeclocycline Oxalate, for which, in series [2], the “Color Description” value was “Yellowish” and the “Munsell Classification” value is reported as 5Y/9/2.5 NN. In addition, the pH in series [3] turned out to be 3.3.
For the molecule `CC1c2cccc(O)c2C(O)=C2C(=O)C3(O)C(O)=C(C(N)=O)C(=O)C(N(C)C)C3C(O)C21.O=C(O)C=CC(=O)O` (centres unmarked) [Doxycycline Maleate], in series [1], the “Solubility pH = 1.0 (class)” value was “Soluble (The statement soluble means that the volume of solvent (required for dissolution) in ml per gram of solute is of from 1 to 30)”, the “Solubility pH = 1.0 (volume of solvent required for dissolution per gram of solute)” value was 13 ml/g, the “Solubility pH = 1.2 (class)” value is “Soluble (The statement soluble means that the volume of solvent (required for dissolution) in ml per gram of solute is of from 1 to 30)” and the “Solubility pH = 1.2 (volume of solvent required for dissolution per gram of solute)” value came to 13 ml/g. Further, in series [1], the “Solubility pH = 4.5 (class)” value was “Sparingly (The statement sparingly soluble means that the volume of solvent (required for dissolution) in ml per gram of solute is of from 30 to 100)”, the “Solubility pH = 4.5 (volume of solvent required for dissolution per gram of solute)” value was 63 ml/g, the “Solubility pH = 6.8 (class)” value is “Sparingly (The statement sparingly soluble means that the volume of solvent (required for dissolution) in ml per gram of solute is of from 30 to 100)” and the “Solubility pH = 6.8 (volume of solvent required for dissolution per gram of solute)” value came out at 83 ml/g. Besides, in series [1], the “Solubility pH = 7.5 (class)” value was “Sparingly (The statement sparingly soluble means that the volume of solvent (required for dissolution) in ml per gram of solute is of from 30 to 100)” and the “Solubility pH = 7.5 (volume of solvent required for dissolution per gram of solute)” value worked out at 77 ml/g. Moreover, the “Solubility compared with doxycycline monohydrate” value in series [1] (pH 4.5, pH 6.8 and pH 7.5) is “higher than that of the monohydrate”. In series [2], the “Color Description” value is reported as “Off-white” and the “Munsell Classification” value was 9.25/10Y/2.5 NN. Also, in series [3], the pH was 3.3.
On to Demeclocycline Maleate, for which, in series [1], the “Solubility pH = 1.0 (class)” value is “Soluble (The statement soluble means that the volume of solvent (required for dissolution) in ml per gram of solute is of from 1 to 30)”, the “Solubility pH = 1.2 (class)” value is on record as “Soluble (The statement soluble means that the volume of solvent (required for dissolution) in ml per gram of solute is of from 1 to 30)”, the “Solubility pH = 4.5 (class)” value is given as “Sparingly (The statement sparingly soluble means that the volume of solvent (required for dissolution) in ml per gram of solute is of from 30 to 100)” and the “Solubility pH = 6.8 (class)” value is “Sparingly (The statement sparingly soluble means that the volume of solvent (required for dissolution) in ml per gram of solute is of from 30 to 100)”. Moreover, the “Solubility pH = 7.5 (class)” value in series [1] is “Sparingly (The statement sparingly soluble means that the volume of solvent (required for dissolution) in ml per gram of solute is of from 30 to 100)”. Also, in series [2], the “Color Description” value is on record as “Yellowish” and the “Munsell Classification” value stood at 5Y/9/2 NN. The pH in series [3] is listed as 3.4.
With `CN(C)c1ccc(O)c2c1C[C@H]1C[C@H]3[C@H](N(C)C)C(O)=C(C(N)=O)C(=O)[C@@]3(O)C(O)=C1C2=O` [Minocycline Base, 7-dimethylamino-6-demethyl-6-deoxytetracycline, reference compound], in series [2], the “Color Description” value is reported as “Yellowish” and the “Munsell Classification” value is reported as 7.5Y/9/10 NN. Also, the pH in series [3] is reported as 6.8.
For `CN(C)C1C(O)=C(C(N)=O)C(=O)C2(O)C(O)=C3C(=O)c4c(O)cccc4C(C)(O)C3CC12.O=C(O)C(=O)O` (centres unmarked) [Tetracycline Oxalate], in series [2], the “Color Description” value is “Yellowish” and the “Munsell Classification” value is given as 10Y/9/8 NN. In series [3], the pH turned out to be 3.2. Further, the “pH compared with the marketed form” value in series [3] (comparison of the values of the pH table) is listed as “less acidic than the pH of tetracycline”.
Consider Minocycline Oxalate, for which, in series [2], the “Color Description” value is listed as “Yellowish” and the “Munsell Classification” value is listed as 10/Y/9/3.5 NN. Further, the pH in series [3] is 3.0.
Turning to `CCO.C[C@H]1c2cccc(O)c2C(=O)C2=C(O)[C@]3(O)C(=O)C(C(N)=O)=C(O)[C@@H](N(C)C)[C@@H]3[C@@H](O)[C@@H]21.C[C@H]1c2cccc(O)c2C(=O)C2=C(O)[C@]3(O)C(=O)C(C(N)=O)=C(O)[C@@H](N(C)C)[C@@H]3[C@@H](O)[C@@H]21.Cl.Cl.O` [Doxycycline Hyclate, reference compound], in series [1], the “Solubility pH = 1.0 (class)” value was “Soluble (The statement soluble means that the volume of solvent (required for dissolution) in ml per gram of solute is of from 1 to 30)”, the “Solubility pH = 1.0 (volume of solvent required for dissolution per gram of solute)” value was found to be 16 ml/g, the “Solubility pH = 1.2 (class)” value is listed as “Freely soluble (The statement freely soluble means that the volume of solvent (required for dissolution) in ml per gram of solute is of from 1 to 10)” and the “Solubility pH = 1.2 (volume of solvent required for dissolution per gram of solute)” value turned out to be 3 ml/g. Also, in series [1], the “Solubility pH = 4.5 (class)” value is on record as “Sparingly (The statement sparingly soluble means that the volume of solvent (required for dissolution) in ml per gram of solute is of from 30 to 100)”, the “Solubility pH = 4.5 (volume of solvent required for dissolution per gram of solute)” value is 53 ml/g, the “Solubility pH = 6.8 (class)” value is on record as “Freely soluble (The statement freely soluble means that the volume of solvent (required for dissolution) in ml per gram of solute is of from 1 to 10)” and the “Solubility pH = 6.8 (volume of solvent required for dissolution per gram of solute)” value is 2 ml/g. Moreover, in series [1], the “Solubility pH = 7.5 (class)” value is given as “Sparingly (The statement sparingly soluble means that the volume of solvent (required for dissolution) in ml per gram of solute is of from 30 to 100)” and the “Solubility pH = 7.5 (volume of solvent required for dissolution per gram of solute)” value is given as 100 ml/g. Besides, in series [2], the “Color Description” value was “Yellowish” and the “Munsell Classification” value amounted to 10Y 9/3.5 NN. The “Munsell Classification” value in series [2] (listed as doxycycline hyclate) is given as “yellowish 10Y”.
Take `CN(C)[C@@H]1C(O)=C(C(N)=O)C(=O)[C@@]2(O)C(O)=C3C(=O)c4c(O)cccc4[C@@](C)(O)[C@H]3C[C@@H]12` [Tetracycline]: in series [2], the “Color Description” value was “Yellowish” and the “Munsell Classification” value turned out to be 5Y/9/4 NN.

Source of the values: patent publication US10543298B2, “Salts of tetracyclines” (Hovione Scientia Limited, priority 2015, dated 2020).
